According to ChEMBL document CHEMBL5344452, “TYK2 Inhibitors for Treating Autoimmune and Inflammatory Diseases” (ACS Med Chem Lett, 2024):

The compounds below were run against Non-receptor tyrosine-protein kinase TYK2 (Homo sapiens, UniProt P29597) (assay: Inhibition of human TYK2 JH2 domain (575 to 876 residues) incubated for 60 mins by TR-FRET assay).
Sequence of Non-receptor tyrosine-protein kinase TYK2 (P29597 whole entry, the tested form may be a part): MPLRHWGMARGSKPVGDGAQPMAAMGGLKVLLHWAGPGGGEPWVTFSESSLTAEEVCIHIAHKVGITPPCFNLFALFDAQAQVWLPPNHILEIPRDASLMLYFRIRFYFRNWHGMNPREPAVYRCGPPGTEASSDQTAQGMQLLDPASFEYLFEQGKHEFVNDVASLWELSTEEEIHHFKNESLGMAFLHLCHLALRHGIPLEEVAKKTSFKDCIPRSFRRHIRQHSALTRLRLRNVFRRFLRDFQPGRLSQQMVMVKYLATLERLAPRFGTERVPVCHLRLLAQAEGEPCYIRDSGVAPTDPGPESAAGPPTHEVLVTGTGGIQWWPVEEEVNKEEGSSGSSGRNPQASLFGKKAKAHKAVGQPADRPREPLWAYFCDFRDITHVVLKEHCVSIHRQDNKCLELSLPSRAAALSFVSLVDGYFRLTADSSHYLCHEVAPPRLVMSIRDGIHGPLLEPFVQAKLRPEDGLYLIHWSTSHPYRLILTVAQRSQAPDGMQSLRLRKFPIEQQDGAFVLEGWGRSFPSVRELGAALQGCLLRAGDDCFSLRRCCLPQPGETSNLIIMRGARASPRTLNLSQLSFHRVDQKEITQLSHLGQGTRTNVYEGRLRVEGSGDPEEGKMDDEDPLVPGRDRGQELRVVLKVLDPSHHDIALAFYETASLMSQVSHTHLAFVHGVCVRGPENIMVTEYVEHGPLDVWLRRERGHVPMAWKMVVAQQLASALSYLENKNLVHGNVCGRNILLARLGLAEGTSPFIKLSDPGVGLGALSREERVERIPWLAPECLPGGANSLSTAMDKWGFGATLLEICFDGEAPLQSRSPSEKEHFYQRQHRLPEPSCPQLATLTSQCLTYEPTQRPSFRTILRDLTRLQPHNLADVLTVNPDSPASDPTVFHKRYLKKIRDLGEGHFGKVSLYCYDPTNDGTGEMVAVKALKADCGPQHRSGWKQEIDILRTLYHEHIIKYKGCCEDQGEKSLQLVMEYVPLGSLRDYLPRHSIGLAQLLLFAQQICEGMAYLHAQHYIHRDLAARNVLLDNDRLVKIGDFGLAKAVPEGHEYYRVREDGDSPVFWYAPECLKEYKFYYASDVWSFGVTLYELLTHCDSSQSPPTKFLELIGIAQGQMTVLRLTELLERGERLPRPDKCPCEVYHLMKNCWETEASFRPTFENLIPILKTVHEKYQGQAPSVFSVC

Structure (SMILES)	IC50
CC(=O)Nc1cc2c(cn1)c(-c1ccn(C)n1)nn2-c1ccnc(C(C)(F)F)n1	≤ 10 nM
CC(=O)Nc1cc2c(cn1)c(C)nn2-c1nc(C2CCOC2)c(C)s1 (stereo unspecified)	≤ 10 nM
CC(=O)Nc1cc2c(cn1)c(N1CC3(COC3)C1)nn2-c1nccc(C(C)(F)F)n1	≤ 10 nM
COC1CC(Oc2cc(C3CCOC3)nc(-n3nc(C4CC4)c4cnc(NC(C)=O)cc43)c2)C1 (stereo unspecified)	≤ 10 nM
CC(=O)Nc1cc2c(cn1)c(-c1ccc(C)nc1)nn2-c1ccnc(C(C)(F)F)n1	≤ 10 nM
CC(=O)Nc1cc2c(cn1)c(C)nn2-c1cccc(C2CCOC2)n1 (stereo unspecified)	≤ 10 nM
